According to US8410089B2, “Fused heterocyclic ring compound” (Takeda Pharmaceutical Company Limited, priority 2009, dated 2013):

Tests used:
male Wistar fatty rats = assay: Oral glucose tolerance test (OGTT), hypoglycemic action; type: in vivo, rat; details: 10 mg/kg oral
Experimental: A hypoglycemic action of the compound of the present invention was examined in an oral glucose tolerance test (OGTT) using male Wistar fatty rats (WF rat, TAKEDA RABICS).
First, 22-week-old WF rats fasted overnight were divided into groups (6 per group), and blood samples were collected and used as plasma samples before drug administration (−60 min). Thereafter, 0.5% methylcellulose (control group) and a test compound was orally administered at 10 mg/kg. At 60 min after compound administration, each individual was loaded by oral administration of glucose at 1 g/kg, and the blood was drawn before glucose loading (0 min) and 10, 30, 60 and 120 min after loading. The plasma glucose concentration was measured using L type Waco Glu2 (Wako) and Hitachi automatic analyzer 7080 (Hitachi Instruments Service Co., Ltd.). The 0-120 min area under time curve (AUC0-120min) and the decrease rate when the control group was 100% were calculated from the plasma glucose values measured.

human GPR119 = biological target: T1, human GPR119 (Homo sapiens, UniProt Q8TDV5); assay: Human GPR119 agonist activity with increase of intracellular cAMP concentration as index (CRE-luciferase reporter assay in hGPR119/CRE-luc/CHO(dhfr-) cells); type: cell-based; details: 1 μM test compound, 2 hr incubation; luciferase activity with 10 μM N-[4-(methylsulfonyl)phenyl]-5-nitro-6-{4-[4-(trifluoromethoxy)phenoxy]piperidin-1-yl}pyrimidin-4-amine = 100%, DMSO = 0%
T1 construct: expressed in transfected cells
T1 sequence (Q8TDV5 1-335): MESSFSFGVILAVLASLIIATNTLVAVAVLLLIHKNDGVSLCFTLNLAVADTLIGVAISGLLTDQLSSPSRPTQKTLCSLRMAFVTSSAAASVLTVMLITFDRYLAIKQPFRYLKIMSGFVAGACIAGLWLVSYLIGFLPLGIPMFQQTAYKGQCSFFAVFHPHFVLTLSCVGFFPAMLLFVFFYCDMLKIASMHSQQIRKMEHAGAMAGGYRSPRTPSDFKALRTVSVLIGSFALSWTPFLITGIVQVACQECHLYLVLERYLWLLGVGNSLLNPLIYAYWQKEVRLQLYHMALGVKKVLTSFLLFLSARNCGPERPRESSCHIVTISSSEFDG
Experimental: Evaluation of Human GPR119 Agonist Activity with Increase of Intracellular Camp Concentration as Index
(1) Construction of Expression Plasmid of Human GPR119 Gene
Using High Fidelity RNA PCR Kit (Takara Bio Inc.), human GPR119 gene was cloned by PCR using cDNA library synthesized from human brain mRNA (Clontech) as a template and synthetic DNA having the following sequence. Primer 1 and Primer 2 were is prepared by adding cleavage sites for Sal I and Nhe I based on the base sequence information of human GPR119 gene.
PCR was performed using Pyrobest DNA polymerase (Takara Bio Inc.). The obtained PCR product was cloned to pUC118 (Takara Bio Inc.), and the base sequence was […] and digested with restriction enzymes Sal I, Nhe I. The obtained DNA fragment was inserted into an animal cell expression vector pAKKO-111H (plasmid same as pAKKO-1.111H described in Biochem. Biophys. Acta, Hinuma, S. et al., 1219, 251-259 (1994)) similarly digested with Sal I, Nhe I, whereby an expression plasmid pAKKO-111H/hGPR119 was prepared.
(2) Construction of Reporter Plasmid
Zeocin resistance gene was cloned by PCR using plasmid pcDNA3.1/Zeo (Invitrogen) as a template, synthetic DNA having the following sequences wherein cleavage sites for restriction enzymes Sal I and BamH I are added to before and after a region containing SV40 Ori and a region containing SV40pA, which are located at the upstream and downstream of Zeocin resistance gene of this plasmid, as a primer set, and KOD polymerase (TOYOBO).
The obtained PCR product was inserted into pCR-BluntII (Invitrogen). A fragment containing a Zeocine resistance gene obtained by digesting the plasmid with restriction enzymes Sal I and BamH I was inserted into plasmid pGL3(R2.2)-Basic Vector (promega) similarly digested with Sal I and Bam HI to give Zeocin resistance plasmid pGL3(R2.2)/Zeocin-Basic Vector.
A reporter plasmid containing 4 cAMP responsive elements (CRE) connected in tandem was prepared using the following 5′-terminal phosphorylated synthetic DNA.
First, a DNA fragment containing a CRE sequence obtained by annealing CRE-Upper and CRE-Lower and elongating with KOD polymerase was inserted into pCR-BluntII to give pCR-BluntII-CRE. A fragment cleaved from pCR-BluntII-CRE with restriction enzymes Kpn I and Hind III was inserted into pGL3(R2.2)/Zeocin-Basic Vector similarly digested with Kpn I and Hind III to give reporter plasmid pGL3(R2.2)/Zeocin-CRE-luc.
(3) Introduction of Human GPR119 Gene and Reporter Gene into CHO(dhfr-) Cells and Acquirement of Expressing Cell
CHO(dhfr-) cells in MEMα (minimum essential medium alpha) (Nikken bio medical laboratory) medium containing 10% fetal bovine serum, 100 U/mL penicillin and 100 μg/mL streptomycin (Invitrogen) were detached by a treatment with trypsin-EDTA (ethylenediaminetetraacetic acid) (Invitrogen), the cells were washed with PBS (Phosphate-buffered saline), centrifuged (1000 rpm, 5 min) and suspended in PBS at a cell density of 1×10^7 cells/mL. Then, DNA was introduced into the cell by a gene pulser (Bio-Rad) under the following conditions. That is, 1×10^7 cells, plasmid pGL3(R2.2)/Zeocin-CRE-luc (15 μg), which was obtained in (2) and linearized with BssH II, and pAKKO-111H (5 μg) were added in a 0.4 cm gap cuvette, and the mixture was electroporated at voltage […], capacitance 950 μF. The cells were placed in the above-mentioned medium, cultured for 24 hr, and the cells were detached and centrifuged. The cells were diluted to 250 cells/well, plated in a 96 well plate (Corning) and cultivated in a CO2 incubator at 37° C. to give a transformant. Then, forskolin was added to the obtained transformant and a strain (CRE-luc/CHO(dhfr-) cell) that induces luciferase expression was selected. […]

GPR119 agonist activity (%) at 1 μM concentration (human GPR119): 74%
SMILES: CCc1cnc(N2CCC(Oc3cc(N4CCc5cc(S(C)(=O)=O)ccc54)ncn3)CC2)nc1 [Example 33, 1-(6-{[1-(5-ethylpyrimidin-2-yl)piperidin-4-yl]oxy}pyrimidin-4-yl)-5-(methylsulfonyl)-2,3-dihydro-1H-indole]
blood glucose lowering rate (%) (male Wistar fatty rats; OGTT in WF rats, decrease rate of AUC0-120min with control group as 100%, **p ≦ 0.01 vs control): 23.4** %
plasma glucose AUC0-120 min (male Wistar fatty rats; 22-week-old WF rats fasted overnight, glucose 1 g/kg oral 60 min after compound, control group 32734.2): 25073.3 mg·min/dL
